Experimental data: ChEMBL document CHEMBL1151082, “Structure-directed discovery of an inhibitor of the binding of HIV GP120 to the CD4 receptor” (Bioorg Med Chem Lett, 1993); call rule not given here

Columns and labels:
[1] = molecular target: T1, Envelope glycoprotein gp160 (Human immunodeficiency virus type 1 group M subtype B (isolate HXB2)(HIV-1), UniProt P04578); test: Tested for inhibition of binding of soluble recombinant CD4-gp120 using ELISA assay; IA is Inactive
[2] = molecular target: T1, Envelope glycoprotein gp160; test: Tested for inhibition of binding of soluble recombinant CD4-gp120 using ELISA assay
[3] = molecular target: T1, Envelope glycoprotein gp160; test: Tested for rate constant of binding to inhibit soluble recombinant CD4-gp120; value ranges form 4-20 uM
[4] = molecular target: T1, Envelope glycoprotein gp160; test: Tested for ability to block the CD4-gp120 interaction measured by binding of [125I]sCD4 to gp120
[5] = molecular target: T1, Envelope glycoprotein gp160; test: Tested in an HIV viral syncytium assay for inhibition of binding of recombinant CD4-gp120

Row | IC50 [1] | Compound | other results
1 | Not Active | CCCCN(CCCC)CC1CC(c2ccccc2)(c2ccccc2)C(=O)O1 (stereo unspecified) | 
2 |  | COC(=O)C(=O)N1CCC[C@@H]1C(=O)N[C@H](Cc1ccccc1)C(=O)OCc1ccccc1 | IC50 [2]: 300 µM
3 |  | CC(C)C[C@H](NC(=O)[C@H](Cc1ccccc1)N1NC(=O)[C@H]([C@@H](N)CO)CCC(=O)N[C@@H](CO)C1=O)C(=O)N[C@H](C(=O)NCc1ccccc1)[C@@H](C)O | Kd [3]: 4 µM; IC50 [2]: > 100 µM
4 | Not Active | CCN(Cc1ccccc1)CC1CC(c2ccccc2)(c2ccccc2)C(=O)O1 (stereo unspecified) | 
5 | Not Active | CCNCC1CC(c2ccccc2)(c2ccccc2)C(=O)O1 (stereo unspecified) | 
6 | Not Active | CCN(CCN(C)C)CC1CC(c2ccccc2)(c2ccccc2)C(=O)O1 (stereo unspecified) | 
7 | Not Active | CN(C)CCNCC1CC(c2ccccc2)(c2ccccc2)C(=O)O1 (stereo unspecified) | 
8 | Not Active | O=C1OC(CBr)CC1(c1ccccc1)c1ccccc1 (stereo unspecified) | 
9 | Not Active | CC1(C)CN(CC2CC(c3ccccc3)(c3ccccc3)C(=O)O2)C=N1 (stereo unspecified) | 
10 | Not Active | CCN(CC1CC(c2ccccc2)(c2ccccc2)C(=O)O1)C(=O)C(=O)OC (stereo unspecified) | 
11 | Not Active | CC1=NCCN1CC1CC(c2ccccc2)(c2ccccc2)C(=O)O1 (stereo unspecified) | 
12 |  | CCN(CCCl)CC1CC(c2ccccc2)(c2ccccc2)C(=O)O1 (stereo unspecified) | IC50 [4]: 30 µM; IC50 [2]: 35 µM; IC50 [5]: 100 µM

Row | Compound | IC50 [1] | other results
13 | O=C1OC(C[N+]23CCC(CC2)CC3)CC1(c1ccccc1)c1ccccc1.[Br-] (stereo unspecified) | Not Active | 
